{"source": "patent US11878012B2", "about": "“Compositions and methods for treating traumatic brain injury” (Board of Regents, the University of Texas System, priority 2020, dated 2024)", "key": {"DGGCs": {"test_system": "DGGCs", "experiment": "GCaMP6f brain slice Ca2+ imaging of DGGCs after sham or CCI-TBI", "type": "cell-based, mice", "source_text": "Neuromodulation of TRPC generates robust Ca2+ influx and facilitates neuronal hyperexcitability. […] To assess the post-injury effect of TRPC channel upregulation on neurons, we used Ca2+ imaging in brain slice to measure excitability as a product of intracellular Ca2+ gating by TRPC1/4/5 channels (FIG. 4). […] Transgenic mice with the GCaMP6f transgene were used to detect changes in cellular Ca2+-activated fluorescence. We hypothesized that DGGC activity increases due to muscarinic stimulation with ACh or direct activation of TRPC4-containing channels with EA. Sensitivity was tested by bath perfusion of ACh or EA to the slice for 5 minutes during Ca2+ imaging to quantify peak amplitude of GCaMP6f fluorescence per cell, duration of Ca2+ influx, and the field-frequency of events (FIG. 4).\nBrain slice Ca2+ imaging. Transverse slices (300 μm) of hippocampus were cut with a vibratome (Thermo Scientific Microm HM650V) from Cre-CamK2+/GCamp6f+/− mice. […] Hippocampal slices were maintained in oxygenated ACSF at 30° C. for 60 min, and experiments performed at 28° C. […] Neurons were visually identified with a Nikon FN-1 microscope equipped with a 40× water-immersion objective and infrared differential interference contrast. GCaMP6f fluorescence was obtained using a SOLA Light Engine Illumination source (Lumecor) with an output of 3.5W through a 3 mm diameter liquid light guide through a Nikon ET-GFP filter. Nikon Elements software was used for image acquisition through a QIClick CCD camera (Qlmaging) with a Uniblitz Model VMM-D 1 shutter driver. Baseline time series of the DG granule layer were acquired in the presence of bath solution perfusion for 2 min. […] Images were acquired in time series with an exposure time of 200 ms at 2-10 fps at 12-bit rate and no binning. Time-series image stacks were processed with ImageJ. Images were background subtracted using the mean of the 5% lowest pixel values. Ca2+ signal events were quantified for each cell as change in fluorescence divided by the baseline fluorescence (ΔF/FO) after background subtraction. ROI signals were detrended before quantification to account for drift due to gradual photobleaching of the background."}, "TRPC3": {"molecular_target": "T1, TRPC3 (Homo sapiens, UniProt Q13507)", "T1 sequence (Q13507 1-921)": "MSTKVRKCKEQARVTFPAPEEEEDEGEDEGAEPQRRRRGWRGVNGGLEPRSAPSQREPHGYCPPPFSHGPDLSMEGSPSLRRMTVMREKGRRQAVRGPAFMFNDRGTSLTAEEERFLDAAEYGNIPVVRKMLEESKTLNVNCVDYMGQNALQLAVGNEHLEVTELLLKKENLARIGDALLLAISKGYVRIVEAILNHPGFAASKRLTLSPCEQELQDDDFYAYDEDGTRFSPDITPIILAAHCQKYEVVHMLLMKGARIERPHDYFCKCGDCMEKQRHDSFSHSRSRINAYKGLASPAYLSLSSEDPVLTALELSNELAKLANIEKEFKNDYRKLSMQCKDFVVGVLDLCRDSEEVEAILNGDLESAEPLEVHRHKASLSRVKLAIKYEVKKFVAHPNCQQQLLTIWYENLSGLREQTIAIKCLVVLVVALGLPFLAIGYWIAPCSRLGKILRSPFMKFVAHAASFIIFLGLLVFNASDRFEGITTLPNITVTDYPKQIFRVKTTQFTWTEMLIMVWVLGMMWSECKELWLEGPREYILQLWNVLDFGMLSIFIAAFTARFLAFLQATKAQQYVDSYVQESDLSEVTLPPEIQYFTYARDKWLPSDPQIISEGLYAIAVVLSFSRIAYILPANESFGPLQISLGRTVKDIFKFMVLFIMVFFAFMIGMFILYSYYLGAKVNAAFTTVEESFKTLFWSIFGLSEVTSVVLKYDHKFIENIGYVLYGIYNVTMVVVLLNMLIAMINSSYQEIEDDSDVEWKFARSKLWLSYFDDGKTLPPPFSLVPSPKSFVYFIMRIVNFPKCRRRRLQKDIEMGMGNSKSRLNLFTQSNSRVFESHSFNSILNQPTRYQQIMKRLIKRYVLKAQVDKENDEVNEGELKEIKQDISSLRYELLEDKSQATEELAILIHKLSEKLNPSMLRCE", "details": "description; cited from earlier work"}}}
{"smiles": "CCCCNc1nc2ccccc2[nH]1", "note": "[M084, N-butyl-1H-benzimidazol-2-amine]", "values": [{"measurement": "Ca2+ peak amplitude", "setting": "DGGCs; EA 1 μM + M084 10 μM, ipsilateral DGGCs from TBI mice", "value": "1.44±0.05 ΔF/F"}, {"measurement": "duration of Ca2+ influx", "setting": "DGGCs; M084 10 μM added to EA 1 μM", "value": "attenuated the duration of influx to baseline levels"}, {"measurement": "effect on TRPC3", "setting": "TRPC3", "value": "weak inhibitor or antagonist"}]}
